# Measured values reported in ChEMBL document CHEMBL3627683, “Effective Two-Photon Excited Photodynamic Therapy of Xenograft Tumors Sensitized by Water-Soluble Bis(arylidene)cycloalkanone Photosensitizers” (J Med Chem, 2015).
# Calls of active or inactive are those of the source. The rule behind the calls is not given here.
# Columns and labels:
# [1] = Solubility of the compound in PBS; assay type: physicochemical
# [2] = Octanol-water partition coefficient, log P of the compound; assay type: physicochemical
# [3] = Drug uptake in mitochondria of human HepG2 cells at 5 uM for 4 hrs by MitoLite NIR staining-based CLSM analysis; assay type: ADME; details: hepg2, 4 h
# [4] = Drug uptake in mitochondria of human HepG2 cells by MitoLite NIR staining-based CLSM analysis; assay type: ADME; details: TDE = time-dependent effect
# [5] = Dark toxicity in human HepG2 cells assessed as cell viability measured after 24 hrs by CCK-8 assay; assay type: cell-based; details: read-out: TC50
# HepG2 [6] = experiment: Photocytotoxicity against human HepG2 cells assessed as cell viability preincubated for 4 hrs in dark condition followed by irradiation at 532 nm for 20 mins measured 24 hrs post incubation in dark condition by CCK-8 assay; assay type: functional, cell-based; details: HepG2, light or radiation study
# [7] = Therapeutic ratio of TC50 for human HepG2 cells to IC50 for human HepG2 cells under irradiation at […]; assay type: ADME, cell-based; details: read-out: TI
# HepG2 [8] = experiment: Photocytotoxicity against human HepG2 cells assessed as cell viability preincubated for 4 hrs in dark condition followed by irradiation at 800 nm for 10 mins measured 24 hrs post incubation in dark condition by CCK-8 assay; assay type: functional, cell-based; details: HepG2, light or radiation study
# [9] = Therapeutic ratio of TC50 for human HepG2 cells to IC50 for human HepG2 cells under irradiation at 800 nm; assay type: ADME, cell-based; details: read-out: TI
# HepG2 [10] = experiment: Induction of ROS generation in human HepG2 cells at 5 uM preincubated for 4 hrs followed by DCFH-DA addition for 0.5 hrs and irradiation at 800 nm for 10 mins measured by CLSM; assay type: functional, cell-based
# HepG2 [11] = experiment: Induction of ROS generation in human HepG2 cells at 5 uM preincubated for 4 hrs followed by DCFH-DA addition for 0.5 hrs in absence of irradiation measured by CSLM; assay type: functional, cell-based
# Mus musculus = experiment: Induction of blood vessels blockage in BALB/c mouse dorsal skinfold window chamber model at 17.5 mg/kg, iv irradiated at 800 nm for 5 mins monitored by stereomicroscopic analysis; assay type: functional, organism-based; details: Blood vessel
# CCRF S-180 [12] = experiment: Drug uptake in mouse S180 cells implanted in BALB/c mouse at 17.5 mg/kg, iv measured within 3 hrs by CSLM analysis; assay type: ADME, organism-based; details: in vivo
# CCRF S-180 [13] = experiment: Drug uptake in mouse S180 cells implanted in BALB/c mouse at 17.5 mg/kg, iv measured at 3 to 24 hrs by CSLM analysis; assay type: ADME, organism-based; details: in vivo
# CCRF S-180 [14] = experiment: Antitumor activity against mouse S180 cells implanted in BALB/c mouse assessed as tumor growth inhibition at 17.5 mg/kg, iv administered 3 hrs followed by irradiation at 800 nm for 25 mins measured every other day until 12 days relative to control; assay type: functional; details: CCRF S-180, light or radiation study, read-out: TGI
# CCRF S-180 [15] = experiment: Antitumor activity against mouse S180 cells implanted in BALB/c mouse assessed as tumor growth inhibition at 17.5 mg/kg, iv administered 3 hrs followed by irradiation at 800 nm for 25 mins measured every other day until 12 days […]; assay type: functional, organism-based
# CCRF S-180 [16] = experiment: Antitumor activity against mouse S180 cells implanted in BALB/c mouse assessed as prolongation of survival at 17.5 mg/kg, iv administered 3 hrs followed by irradiation at 800 nm for 25 mins measured by Kaplan-Meier analysis; assay type: functional, organism-based
# CCRF S-180 [17] = experiment: Antitumor activity against mouse S180 cells implanted in BALB/c mouse assessed as prolongation of survival at 17.5 mg/kg, iv administered 3 hrs in the absence of irradiation measured by Kaplan-Meier analysis; assay type: functional, organism-based
SMILES,solubility [1] [mg/mL],logP [2],Drug uptake [3],Drug uptake [4],Drug uptake (CCRF S-180 [12]),Drug uptake (CCRF S-180 [13]),CC50 at 24 h [5] [µM],IC50 (HepG2 [6]) [µM],selectivity ratio [7],IC50 (HepG2 [8]) [µM],selectivity ratio [9],Activity (HepG2 [10]),Activity (HepG2 [11]),Activity (Mus musculus),inhibition in vivo at 17.5 mg/kg (CCRF S-180 [14]) [%],TGI (CCRF S-180 [15]),Activity (CCRF S-180 [16]),Activity (CCRF S-180 [17])
COCCOCCOCCOCCN(C)c1ccc(C=C2CC(=Cc3ccc(N(C)CCOCCOCCOCCOC)cc3)C2=O)cc1,0.3,2.86,Active,tde,,,34,2.26,15,13.2,2.58,,,,,,,
COCCOCCOCCOCCOCCN(C)c1ccc(/C=C2\CC/C(=C\c3ccc(N(C)CCOCCOCCOCCOCCOC)cc3)C2=O)cc1,> 100,2.73,Active,tde,,,41.5,2.59,16,14.9,2.79,,,,,,,

# Further lines, with some results ahead:
solubility [1] [mg/mL],logP [2],Drug uptake [3],Drug uptake [4],Drug uptake (CCRF S-180 [12]),Drug uptake (CCRF S-180 [13]),SMILES,CC50 at 24 h [5] [µM],IC50 (HepG2 [6]) [µM],selectivity ratio [7],IC50 (HepG2 [8]) [µM],selectivity ratio [9],Activity (HepG2 [10]),Activity (HepG2 [11]),Activity (Mus musculus),inhibition in vivo at 17.5 mg/kg (CCRF S-180 [14]) [%],TGI (CCRF S-180 [15]),Activity (CCRF S-180 [16]),Activity (CCRF S-180 [17])
> 100,3.04,Active,tde,Active,Not Active,CCN(CC)c1ccc(C=C2CC(=Cc3ccc(N(CCOCCOCCOCCOCCOC)CCOCCOCCOCCOCCOC)cc3)C2=O)cc1,35.9,1.41,25.5,3.93,9.13,Active,inactive,Active,43,inactive,Active,inactive
> 100,2.54,Active,tde,,,COCCOCCOCCOCCOCCN(C)c1ccc(C=C2CC(=Cc3ccc(N(C)CCOCCOCCOCCOCCOC)cc3)C2=O)cc1,41.9,3.07,13.6,16.8,2.49,,,,,,,
1.8,3.2,Active,tde,,,CCN(CC)c1ccc(C=C2CC(=Cc3ccc(N(CCOCCOCCOCCOC)CCOCCOCCOCCOC)cc3)C2=O)cc1,24,1.27,18.9,1.87,12.8,,,,,,,
> 100,3.2,Active,tde,,,CCN(CC)c1ccc(/C=C2\CC/C(=C\c3ccc(N(CCOCCOCCOCCOCCOC)CCOCCOCCOCCOCCOC)cc3)C2=O)cc1,20.9,1.61,13,4.66,4.48,,,,,,,
